This passage reports Ki results from patent US20230159532A1, “PARATHYROID HORMONE (PTH) RECEPTOR ANTAGONISTS AND USES THEREOF” (Crinetics Pharmaceuticals, Inc., priority 2021, published 2023).

The term Ki denotes the dissociation constant of the complex between target and ligand, obtained from inhibition or displacement.

The assay has as its target T1, human PTHR1 receptor (Homo sapiens, UniProt Q03431).
T1 construct: purchased Eurofins HTS030M
T1 sequence (Q03431 27-593): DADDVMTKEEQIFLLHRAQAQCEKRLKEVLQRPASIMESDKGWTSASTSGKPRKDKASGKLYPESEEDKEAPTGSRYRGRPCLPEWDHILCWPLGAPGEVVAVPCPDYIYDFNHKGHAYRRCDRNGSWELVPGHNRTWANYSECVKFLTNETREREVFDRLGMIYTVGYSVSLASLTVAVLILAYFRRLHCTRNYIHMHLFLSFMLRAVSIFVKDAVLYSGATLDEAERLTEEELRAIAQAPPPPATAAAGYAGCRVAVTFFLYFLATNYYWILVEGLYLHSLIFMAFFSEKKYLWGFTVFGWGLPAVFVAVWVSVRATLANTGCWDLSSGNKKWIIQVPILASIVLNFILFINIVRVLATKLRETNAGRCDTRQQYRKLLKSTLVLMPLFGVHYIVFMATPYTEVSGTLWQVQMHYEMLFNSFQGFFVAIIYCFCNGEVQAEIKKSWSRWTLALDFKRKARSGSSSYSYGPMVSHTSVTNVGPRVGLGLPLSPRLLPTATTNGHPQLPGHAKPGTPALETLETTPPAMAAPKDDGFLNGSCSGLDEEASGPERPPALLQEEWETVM
Nature of the assay: Competitive antagonist binding assay for hPTH-R1 (radioactive competition binding, SPA beads). The following applies: human PTHR1 membranes, [125I]-[Nle8,18,Tyr34]-PTH(1-34) 0.2 nM, 90 minutes at room temperature; read-out: hPTHR1 Ki. How it is done: Competitive Antagonist Binding Assay Protocol for hPTH-R1 Antagonists:
The inhibition of binding to the human PTHR1 receptor was measured in a radioactive competition binding assay using the radiolabeled [^125I]-[NLE^8,18, TYR^34]-parathyroid hormone (1-34) ligand (PerkinElmer Cat# NEX244, custom synthesis) as the probe ligand for the receptor. Briefly, membranes from cells expressing the human PTHR1 (Eurofins Cat# HTS030M) were incubated with SPA beads (PerkinElmer Cat# RPNQ0001) in binding assay buffer [50 mM HEPES (Biopioneer Cat# C0113), 5 mM MgCl2 (Sigma Cat# M8266), 10 mM CaCl2 (Fisher Scientific Cat# BP510), 0.1% BSA (Fisher Scientific Cat# BP1600), 0.01% TritonX-100 (Bio-Rad Cat#161-0407), and protease inhibitors (Pierce Cat# A32963); pH 7.4]. Membranes bound to SPA bead were treated with various dilutions of compounds (final concentrations typically 0-10,000 nM), and 0.2 nM radiolabeled ligand in 96-well isoplates (PerkinElmer Cat#6005040) for 90 minutes at room temperature. The radioactive signal was detected using a MicroBetaTriLux 1450 LSC (PerkinElmer). All data manipulations to determine the Ki values were performed using GraphPad v8 (GraphPad, San Diego Calif.).

For the molecule `CNCCNc1cc(F)c(N2C(=O)N(C)c3ncc(F)cc3-c3c(F)cc(C#N)cc32)c(F)c1` [1-109, 10-(2,6-difluoro-4-{[2-(methylamino)ethyl]amino}phenyl)-4,15-difluoro-8-methyl-9-oxo-6,8,10-triazatricyclo[9.4.0.0^2,7]pentadeca-1(11),2(7),3,5,12,14-hexaene-13-carbonitrile], the Ki was less than 0.1 µM. As for `CCN1C(=O)N(c2c(F)cc(NCCNCCO)cc2F)c2cc(Cl)ccc2-c2cc(C(F)(F)F)cnc21` [1-56, 13-chloro-10-[2,6-difluoro-4-({2-[(2-hydroxyethyl)amino]ethyl}amino)phenyl]-8-ethyl-4-(trifluoromethyl)-6,8,10-triazatricyclo[9.4.0.0^2,7]pentadeca-1(11),2(7),3,5,12,14-hexaen-9-one], the figure is less than 0.1 µM; as for `CC(C)N1C(=O)N(c2c(F)cc(NCCNCCO)cc2F)c2cc(C#N)ccc2-c2cc(F)cnc21` [1-85, 10-[2,6-difluoro-4-({2-[(2-hydroxyethyl)amino]ethyl}amino)phenyl]-4-fluoro-9-oxo-8-(propan-2-yl)-6,8,10-triazatricyclo[9.4.0.0^2,7]pentadeca-1(11),2(7),3,5,12,14-hexaene-13-carbonitrile], less than 0.1 µM; as for `CCN1C(=O)N(c2c(F)cc(NCCNC)cc2F)c2cc(Cl)ccc2-c2c1ncc(F)c2C` [3-7, 13-chloro-10-(2,6-difluoro-4-{[2-(methylamino)ethyl]amino}phenyl)-8-ethyl-4-fluoro-3-methyl-6,8,10-triazatricyclo[9.4.0.0^2,7]pentadeca-1(11),2(7),3,5,12,14-hexaen-9-one], less than 0.1 µM. The figure for `CCN1C(=O)N(c2c(F)cc(NCCNC3CCOCC3)cc2F)c2cc(Cl)ccc2-c2nc(C#N)ccc21` [3-17, 13-chloro-10-[2,6-difluoro-4-({2-[(oxan-4-yl)amino]ethyl}amino)phenyl]-8-ethyl-9-oxo-3,8,10-triazatricyclo[9.4.0.0^2,7]pentadeca-1(11),2(7),3,5,12,14-hexaene-4-carbonitrile] is 1 to 10 µM. `CCN1C(=O)N(c2c(F)cc(NCCNCCO)cc2F)c2nc(C#N)ccc2-c2cc(F)cnc21` [3-14, 8-[2,6-difluoro-4-({2-[(2-hydroxyethyl)amino]ethyl}amino)phenyl]-10-ethyl-14-fluoro-9-oxo-6,8,10,12-tetraazatricyclo[9.4.0.0^2,7]pentadeca-1(11),2(7),3,5,12,14-hexaene-5-carbonitrile]: the Ki was less than 0.1 µM. The figure for `CCN1C(=O)N(c2ccc(NCCNC)cc2)c2cc(Cl)ccc2-c2cc(Cl)cnc21` [2-3, 4,13-dichloro-8-ethyl-10-(4-{[2-(methylamino)ethyl]amino}phenyl)-6,8,10-triazatricyclo[9.4.0.0^2,7]pentadeca-1(11),2(7),3,5,12,14-hexaen-9-one] is less than 0.1 µM; for `CCCN1C(=O)N(c2c(F)cc(NCCNC)cc2F)c2cc(C#N)ccc2-c2cc(F)cnc21` [1-117, 10-(2,6-difluoro-4-{[2-(methylamino)ethyl]amino}phenyl)-4-fluoro-9-oxo-8-propyl-6,8,10-triazatricyclo[9.4.0.0^2,7]pentadeca-1(11),2(7),3,5,12,14-hexaene-13-carbonitrile] it is less than 0.1 µM; for `CCN1C(=O)N(c2c(F)cc(N3CCN(CCO)CC3)cc2F)c2cc(C#N)ccc2-c2cc(Cl)cnc21` [1-144, 4-chloro-10-{2,6-difluoro-4-[4-(2-hydroxyethyl)piperazin-1-yl]phenyl}-8-ethyl-9-oxo-6,8,10-triazatricyclo[9.4.0.0^2,7]pentadeca-1(11),2(7),3,5,12,14-hexaene-13-carbonitrile] it is less than 0.1 µM.

Regarding `CCN1C(=O)N(c2c(F)cc(NCCNC[C@@H]3CCC(=O)N3)cc2F)c2cc(C#N)ccc2-c2cc(Cl)cnc21` [1-174, 4-chloro-10-(2,6-difluoro-4-{[2-({[(2S)-5-oxopyrrolidin-2-yl]methyl}amino)ethyl]amino}phenyl)-8-ethyl-9-oxo-6,8,10-triazatricyclo[9.4.0.0^2,7]pentadeca-1(11),2(7),3,5,12,14-hexaene-13-carbonitrile], the Ki was less than 0.1 µM.
